Laboratory results published in patent US12110494B2, “Method for biologically producing sugar alcohol from agar” (Korea University Research and Business Foundation, priority 2018, dated 2024).
One block for each compound: values may come before it.

Assays:
[1] = molecular target: T1, AR expressed by a GRE3 gene derived from S. cerevisiae (Saccharomyces cerevisiae, UniProt P38715); assay: Reduction of L-AHG and AB by AR (NADPH decrease at 340 nm); assay type: biochemical; details: substrate 2 mM, 1 mM NADPH, pH 6.0 sodium phosphate buffer, 30° C., FIG. 3B
T1 construct: A target gene GRE3 was amplified from the genomic DNA by PCR; His6 (C); made in house
T1 sequence (P38715 1-327): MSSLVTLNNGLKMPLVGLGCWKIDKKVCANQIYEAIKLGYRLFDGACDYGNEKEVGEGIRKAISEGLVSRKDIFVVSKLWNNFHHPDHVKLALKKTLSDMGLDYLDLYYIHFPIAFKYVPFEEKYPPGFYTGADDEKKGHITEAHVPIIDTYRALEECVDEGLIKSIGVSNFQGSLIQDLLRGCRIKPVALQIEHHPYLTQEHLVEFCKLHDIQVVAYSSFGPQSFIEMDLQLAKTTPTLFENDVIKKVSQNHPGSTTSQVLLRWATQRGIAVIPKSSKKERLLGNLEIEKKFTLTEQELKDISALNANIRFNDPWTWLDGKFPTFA
Experimental: An enzymatic reaction was performed in a pH 6.0 sodium phosphate buffer at 30° C. 1 mM NADPH was used as a cofactor, and each substrate was allowed to react at 2 mM and a protein concentration of 9.36 nmol.

[2] = molecular target: T2, β-galactosidase expressed by LAC4 (Kluyveromyces lactis, UniProt P00723); assay: AB hydrolysis by LAC4 in coenzyme obtained from lysed cells; assay type: biochemical, K. lactis; details: substrate 2 g/L
T2 construct: expressed in transfected cells; host or cells: Saccharomyces cerevisiae D452-2-L124 (crude lysate supernatant)
Experimental: The AB hydrolysis ability of LAC4 was examined for the constructed strain D452-2-L124 and controls D452-2-L12 and parent D452-2. Since a method of verifying AB hydrolysis is to verify the enzymatic reaction in the cell, a protein, that is, a coenzyme, obtained by growth, collection, and lysis of each cell was used to measure the AB hydrolysis ability. More specifically, each strain was allowed to grow in a YP medium, which is a nutrient broth containing 20 g/L of glucose, at 30° C. and centrifuged in the mid-exponential growth phase at 3,000 g for 10 minutes to collect cells. The collected cells were released with a 20 mM Tris-HCl (pH 7.4) buffer and then lyzed using a sonicator. The lyzed cells were centrifuged at 4° C. and 10,000 g for 10 minutes. The resultant was analyzed by BCA protein concentration quantification to measure the concentration of a coenzyme.
Enzymatic reaction conditions for AB hydrolysis by LAC4 were as follows. AB and lactose as a positive control were used as substrates in the experiment. Each substrate with a concentration of 2 g/L and a coenzyme at 0.5 g/L were reacted in a sodium acetate (pH 6.0) buffer at 30° C. […] This is due to a structural difference between AB and lactose. In this way, it is expected that AB brought into the cell by LAC12 will be hydrolyzed by LAC4.

[3] = test system: D452-2-L12; assay: Intracellular AB uptake by LAC12 in minimal medium; assay type: cell-based, S. cerevisiae; details: minimal medium (Verduyn), without carbon source, FIG. 4A
Experimental: To confirm the possibility that, […], AB is consumed together or AB is uptaken into the cell by producing energy from the carbon source, […], and then AB consumption experiments were performed for D452-2-L12 and parent D452-2 as a control. […]

[4] = test system: parent D452-2; assay: Intracellular AB uptake in minimal medium, control strain; assay type: cell-based, S. cerevisiae; details: minimal medium (Verduyn), without carbon source, FIG. 4D
Experimental: To confirm the possibility that, when a carbon source that may be consumed by a transporter is provided, AB is consumed together or AB is uptaken into the cell by producing energy from the carbon source, […], and then AB consumption experiments were performed for D452-2-L12 and parent D452-2 as a control. As a result, both when glucose (FIG. 4B) was provided and when galactose (FIG. 4C) was provided, only D452-2-L12 was able to consume AB and produced ABol. […] Therefore, D452-2-L12 was able to consume AB by LAC12.

[5] = test system: D452-2-L124; assay: Cell growth inhibition according to AB concentration; assay type: cell-based, S. cerevisiae
Text: (§1) An experiment for confirming the growth inhibition effect is as follows. […] This is because an increase in AB concentration causes a glucose (carbon source) consumption rate to be decreased (FIG. 6B).

[6] = test system: D452-2-L12; assay: as above; assay type: cell-based, S. cerevisiae; details: 20 g/L glucose
Text: as §1

[7] = test system: parent D452-2; assay: as above; assay type: cell-based, S. cerevisiae; details: 20 g/L glucose
Text: as §1

[8] = Thermal stability (degree of denaturation over time); assay type: physicochemical; details: at 4, 25, 50, and 70° C., FIGS. 11A-11D
Experimental: To confirm whether L-AHGol and L-ABol, which were produced by fermentation and separated by size exclusion chromatography, are actually stable against heat, L-AHG and AB were experimentally compared. The experiment was performed by measuring the degree of denaturation of each substance over time at 4, 25, 50, and 70° C.

[9] = test system: Streptococcus mutans; details: reported; cited from earlier work
[10] = AB 0, 10, 20, 50 g/L, minimal medium, 30° C., FIG. 6A

T2 sequence (P00723 whole entry): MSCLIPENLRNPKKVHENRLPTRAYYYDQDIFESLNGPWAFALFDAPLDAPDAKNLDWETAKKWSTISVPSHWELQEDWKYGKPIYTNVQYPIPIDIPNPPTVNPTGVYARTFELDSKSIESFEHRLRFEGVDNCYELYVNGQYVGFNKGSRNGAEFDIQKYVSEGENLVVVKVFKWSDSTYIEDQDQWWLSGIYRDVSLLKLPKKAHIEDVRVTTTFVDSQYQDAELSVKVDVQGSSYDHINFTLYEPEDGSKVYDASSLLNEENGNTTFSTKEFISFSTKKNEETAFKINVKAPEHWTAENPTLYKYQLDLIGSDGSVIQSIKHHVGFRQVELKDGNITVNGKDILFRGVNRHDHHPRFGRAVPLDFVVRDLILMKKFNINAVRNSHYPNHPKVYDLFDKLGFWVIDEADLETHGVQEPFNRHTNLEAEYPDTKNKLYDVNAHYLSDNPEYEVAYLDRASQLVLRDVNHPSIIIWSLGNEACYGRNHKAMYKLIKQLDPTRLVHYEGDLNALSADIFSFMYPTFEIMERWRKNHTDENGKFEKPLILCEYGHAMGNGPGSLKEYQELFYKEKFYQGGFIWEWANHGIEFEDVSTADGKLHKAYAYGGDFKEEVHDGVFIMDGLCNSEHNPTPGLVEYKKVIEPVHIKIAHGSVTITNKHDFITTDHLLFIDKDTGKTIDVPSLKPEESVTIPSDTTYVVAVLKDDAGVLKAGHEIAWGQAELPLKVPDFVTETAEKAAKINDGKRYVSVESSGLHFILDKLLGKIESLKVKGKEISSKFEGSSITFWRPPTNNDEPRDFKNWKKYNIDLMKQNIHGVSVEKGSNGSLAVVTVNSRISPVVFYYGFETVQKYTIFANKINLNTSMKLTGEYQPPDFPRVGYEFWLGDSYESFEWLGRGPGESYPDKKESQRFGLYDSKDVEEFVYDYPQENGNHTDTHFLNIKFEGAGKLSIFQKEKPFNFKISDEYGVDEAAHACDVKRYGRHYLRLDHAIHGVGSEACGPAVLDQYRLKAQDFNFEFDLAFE

Structure (SMILES): OC[C@H]1O[C@@H](O[C@H]2[C@H]3OC[C@@H]2OC(O)[C@H]3O)[C@H](O)[C@@H](O)[C@H]1O (mixture of isomers) [AB, agarobiose]
reactivity with AR [1]: converted into ABol by AR | AB hydrolysis ([2]; coenzyme from D452-2-L124 0.5 g/L, sodium acetate pH 6.0, 30° C., FIG. 5): best hydrolyzed | AB hydrolysis ([2]; coenzymes from strains not expressing LAC4 (D452-2-L12 and parent D452-2), pH 6.0, 30° C.): hardly hydrolyzed | reactivity to β-galactosidase compared with lactose ([2]; coenzyme 0.5 g/L, pH 6.0, 30° C.): less reactive | AB consumption from medium [3]: intracellularly consumed AB | AB consumption from medium [4]: did not decrease | specific growth rate as AB concentration increased ([5]; AB 0, 10, 20, 50 g/L, 20 g/L glucose, minimal medium, 30° C., FIG. 6A): most sharply decreased | growth ([5]; AB concentration 50 g/L, 20 g/L glucose): did not grow | glucose (carbon source) consumption rate on increase in AB concentration ([5]; each strain showed a tendency similar to the specific growth rate, FIG. 6B): decreased | specific growth rate as AB concentration increased [6, 10]: decreased as the AB concentration increased | growth ([6]; AB concentration 50 g/L): did not grow | specific growth rate as AB concentration increased [7, 10]: not affected until the AB concentration was 20 g/L | growth ([7]; AB concentration 50 g/L): slowly grew afterward | thermal stability, degree of denaturation over time [8]: denatured over time at 50 °C or more

Structure (SMILES): OC[C@@H](O)[C@@H]1OC[C@H](O)[C@H]1O[C@@H]1O[C@H](CO)[C@H](O)[C@H](O)[C@H]1O [ABol, agarobititol]
thermal stability, degree of denaturation over time [8]: very stable without being denatured even at 70 °C

reactivity with AR [1]: then with L-AHG | thermal stability, degree of denaturation over time [8]: denatured over time at 50 °C or more
Structure (SMILES): O=C[C@@H](O)[C@@H]1OC[C@H](O)[C@H]1O [L-AHG, 3,6-anhydro-L-galactose]
antibacterial effect [9]: antibacterial effect

Structure (SMILES): OC[C@@H](O)[C@@H]1OC[C@H](O)[C@H]1O [L-AHGol, 3,6-anhydro-L-galactitol]
thermal stability, degree of denaturation over time [8]: very stable without being denatured even at 70 °C

reactivity with AR [1]: reacted best
Structure (SMILES): O=C[C@H](O)[C@@H](O)[C@H](O)CO [xylose]
